Tests used:
BromoTag-Brd2 = molecular target: T1, BromoTag-Brd2 (Homo sapiens, UniProt O60885+P40337, L387A); assay: Time-course degradation assay in heterozygous BromoTag-Brd2 HEK293 cells; assay type: cell-based; conditions: 500 nM
T1 construct: comprising residues 368-440 of human Brd4; Brd2 (endogenous protein, fusion partner in the same polypeptide); eGFP-P2A (upstream marker in the knock-in cassette) (N, cleaved yes); expressed in transfected cells; host or cells: HEK293, heterozygous CRISPR knock-in at the endogenous BRD2 locus
Protocol: Time-course Degradation Assay. Time-course degradation assays using PROTACs AGB1, AGB2, and AGB3 were performed on the genotype verified heterozygous BromoTag-Brd2 HEK293 cell line. Heterozygous BromoTag-Brd2 HEK293 cells were plated at a density of 5×10^5 cells per well of a 6 healthy plate a day prior to initiation of the Timecourse assay. PROTAC's AGB1 & AGB2 were diluted in DMSO to a concentration of 1 mM prior to being further diluted 1:2000 in 2 mL of DMEM to a concentration of 500 nM per timepoint. PROTAC AGB3 was diluted in DMSO to a concentration of 2 mM prior to being further diluted 1:2000 in 2 mL of DMEM to a concentration of 1 μM per timepoint. Timepoint range was between 0-36 h. Treatment was applied in a staggered fashion to enable all timepoints to be harvested at the same time.
Western Blotting. All cells were harvested on ice with RIPA lysis, and extraction buffer (ThermoFisher Scientific, 89901) supplemented with protease inhibitor cocktail (Merck, 11697498001) and Benzonase® Nuclease (Sigma, E1014) before being store at −20° C. prior to use. Total protein quantity was determined using the BCA protein assay (#23225, Pierce, Rockford, Illinois). Protein concentration was determined using the BCA assay (ThermoFisher Scientific, 23225). Samples were then prepared and loaded onto NuPAGE™ 4-12% Bis-Tris Midi gels (ThermoFisher Scientific, WG1403A), followed by the transfer of the proteins onto nitrocellulose membranes (EMD Millipore). The membranes were blocked for 1 h prior to incubation with the primary antibodies using 5% Milk TBST. Membranes were probed for Brd2 (Abcam, Ab139690, 1:1000), Brd3 (Abcam, Ab50818, 1:4000), Brd4 (Abcam, Ab128874, 1:1000) or our polyclonal Brd4^BD2 L387A antibody. […] All western blots were analysed for band intensities using Image Lab from Bio-Rad (LI-COR, Biosciences). The data extracted from these blots were then plotted and analysed using Prism (v. 8.2.0, GraphPad).

VHL (VCB protein) = molecular target: T2, VHL (VCB protein) (Homo sapiens, UniProt P40337); assay: Fluorescence polarization competitive binding assay, binary binding; conditions: compound alone; displacement of HIF-1a peptide probe; read-out: binary affinity to VHL Kd
T2 construct: N-terminally Hiss-tagged VHL (54-213); His6 (N, cleaved yes); made in house; host or cells: E. coli
Protocol: Protein Expression and Purification. […] The complex was further purified by anion exchange followed by gel filtration chromatography.
Fluorescence Polarization Binding Assay. […] All components were dissolved from stock solutions using 100 mM Bis-Tris propane, 100 mM NaCl, 1 mM DTT, pH 7.0, to yield a final assay volume of 15 μL. DMSO was added as appropriate to ensure a final concentration of 2% v/v. […] Percentage displacement values were obtained by normalization of controls were plotted against Log[Compound]. IC50 values were determined for each titration using nonlinear regression analysis with Prism (v. 9.1.0, GraphPad). […] Cooperativity values (a) for each PROTAC were calculated using the ratio: α=binary Kd (−bromodomain)/ternary Kd (+bromodomain).

## CC[C@@H](C(=O)OCCOCCOCCOCC(=O)N[C@H](C(=O)N1C[C@H](O)C[C@H]1C(=O)NCc1ccc(-c2scnc2C)cc1)C(C)(C)C)[C@@H]1N=C(c2ccc(Cl)cc2)c2c(sc(C)c2C)-n2c(C)nnc21 (single isomer, unassigned) [AGB1 (46)]
BromoTag-Brd2
  time to completely degrade BromoTag-Brd2: ≤ 6 h
VHL (VCB protein)
  Kd: 125 nM
